Assay results as given in patent publication US5885988A, “Benzo[g]quinoline derivatives” (Novartis AG, priority 1995, dated 1999).

Legend:
rat sst1 receptors = rat sst1 receptors (Rattus norvegicus, UniProt P28646); test: radioligand binding, rat sst1 receptors; conditions: read-out: affinity for rat sst1 receptors, pIC50 (converted)
From the text: (§1) In particular the agents of the invention bind to somatostatin receptors.
(§2) For all the above indications the preferred compound is [3R,4aR,10aR]-1,2,3,4,4a,5,10, 10a-octahydro-6-methoxy-1 -methyl-benzo[g]quinoline-3-carboxylic acid 4-(4-nitro-phenyl)-piperazine amide, which is the compound of example 1.

[1] = biological target: T1, recombinant human sst1 receptors (Homo sapiens, UniProt P30872); test: radioligand binding, recombinant human sst1 receptors; conditions: read-out: affinity for recombinant human sst1 receptors, pIC50 (converted)
T1 construct: expressed in transfected cells
T1 sequence (P30872 whole entry): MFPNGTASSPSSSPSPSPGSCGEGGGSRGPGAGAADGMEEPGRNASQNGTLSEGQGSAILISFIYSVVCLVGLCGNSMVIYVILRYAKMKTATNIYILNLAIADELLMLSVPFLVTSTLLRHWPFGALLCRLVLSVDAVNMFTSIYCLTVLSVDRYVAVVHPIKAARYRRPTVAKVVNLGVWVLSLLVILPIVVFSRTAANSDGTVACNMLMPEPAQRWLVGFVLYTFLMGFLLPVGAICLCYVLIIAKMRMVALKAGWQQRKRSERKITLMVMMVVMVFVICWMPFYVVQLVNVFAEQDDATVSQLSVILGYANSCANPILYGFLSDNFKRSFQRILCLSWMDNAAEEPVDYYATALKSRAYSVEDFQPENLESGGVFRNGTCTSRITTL
From the text: as §1, §2

[2] = system: neurotransmitter receptors; test: activity at a wide range of neurotransmitter receptors; type: binding
From the text: as §2

intruder mouse test = type: in vivo; conditions: for social withdrawal in the intruder mouse test, standard anti-manic drugs: 3-30 mg/kg s.c.
From the text: as §2

[3] = Matched Pairs Situation test; type: in vivo, mice; conditions: for potency compared with the compound of example 1: Matched Pairs Situation test and intruder mouse test, 3-30 mg/kg s.c. versus 1-10 mg/kg s.c.
From the text: Furthermore at said doses the compounds of the invention reduce aggressive behavior (attacks, chases, bites) in the Matched Pairs Situation test in mice [Dixon et al., J. Clin. Psychiatry 55: (9) [Suppl. B] 4-7 (1994)]. […] They are therefore indicated for the treatment of affective disorders including bipolar disorders e.g. manic-depressive psychoses, extreme psychotic states e.g. mania, schizophrenia, and excessive mood swings where behavioral stabilization is desired. In addition, the compounds are indicated in anxiety states, generalized anxiety as well as social and agoraphobia, as well as those behavioural states characterized by social withdrawal e.g. negative symptoms.
as §2

rat sst1 receptors, sequence (P28646 whole entry): as the sequence (P30872 whole entry) above, with S8P, S11T, P16S, S20G, G25V, G26C, A32S, A45S, T385A, T389S counted along it

IC50 (rat sst1 receptors) | IC50 [1] | activity for a wide range of neurotransmitter receptors [2] | SMILES | social withdrawal in the intruder mouse test (intruder mouse test; 1-10 mg/kg s.c.) | aggressive behavior in the Matched Pairs Situation test ([3]; 1-10 mg/kg s.c.) | social withdrawal in the intruder mouse test, standard anti-manic drugs (intruder mouse test) | potency compared with the compound of example 1 [3]
0.794 nM | 20 nM | without significant activity | COc1cccc2c1C[C@H]1C[C@@H](C(=O)N3CCN(c4ccc([N+](=O)[O-])cc4)CC3)CN(C)[C@@H]1C2 [Example 1, [3R,4aR,10aR]-1,2,3,4,4a ,5,10,10a-octahydro-6-methoxy-1-methyl-benzo[g]quinoline-3-carboxylic acid 4-(4-nitro-phenyl)-piperazine amide] | reverses social withdrawal | clearly lowers aggressive behavior | – | –
– | – | – | NC(=O)N1c2ccccc2C=Cc2ccccc21 [carbamazepine] | – | – | These effects are also observed | less potent
– | – | – | [Li] [lithium] | – | – | These effects are also observed | less potent
